Data from patent US11673323B2, “Fluorescent binders for use in monitoring additive manufacturing processes” (General Electric Company, priority 2020, dated 2023).
“Also recorded” adds a separate entry of the source.

Assay: Solubility of neat fluorescent dye in water-based PVA/PAA binder solution
Details: 0.5 wt % fluorescent dye in binder solution (PVA, PAA, ethylene glycol, ethylene glycol butyl ether, water), stirred at 50-70° C.
Description: To determine whether neat dyes (e.g., unencapsulated) could be incorporated into binder solutions, various fluorescent materials were added to a binder solution including 1-7 wt % PVA, 0.5-3 wt % PAA, 2-6 wt % ethylene glycol, 4-10 wt % ethylene glycol butyl ether, and the balance water to form Samples F-H, and Comparative Samples 1-5. In particular, from 0.2-0.5 wt % of the fluorescent material (DayGlo, UMCCorp, Aldrich) was added to the binder solution and stirred on a hot plate at 50-70° C. to dissolve the dye into the binder solution.

SMILES | Solubility at 0.5 wt % | Solubility at 0.5 wt % (listed as Sample H)
CCCN(CCO)c1nc(Nc2ccccc2)nc(Nc2ccc(/C=C/c3ccc(Nc4nc(Nc5ccccc5)nc(N(CCO)CCO)n4)cc3S(=O)(=O)[O-])c(S(=O)(=O)[O-])c2)n1.[Na+].[Na+] [FB 28] | Partially soluble − | 
O=S(=O)([O-])c1cc(Nc2nc(CCO)nc(Nc3ccccc3)n2)ccc1/C=C/c1ccc(Nc2nc(NCO)nc(Nc3ccccc3)n2)cc1S(=O)(=O)[O-].[Na+].[Na+] [FB 85] | Partially soluble − | 
CCCN(CCC)c1nc(Nc2ccccc2)nc(Nc2ccc(/C=C/c3ccc(Cc4nc(Cc5ccccc5)nc(N(OCC)OCC)n4)cc3S(=O)(=O)[O-])c(S(=O)(=O)[O-])c2)n1.[Na+].[Na+] [FB 113] | Partially soluble − | 
O=S(=O)([O-])c1ccccc1C=Cc1ccc(-c2ccc(C=Cc3ccccc3S(=O)(=O)[O-])cc2)cc1.[Na+].[Na+] [FB 351] | Soluble | fully soluble; also recorded: good solubility
